Measured values from BindingDB's records for doi:10.1021/jm051134w (Parion Sciences, 2006).

Each compound was assayed against Amiloride-sensitive sodium channel (Canis familiaris) (assay: Inhibition of dog bronchi prototypical epithelial sodium channel by electrophysiological assay).
`COc1ccc(CCCCN=C(N)NC(=O)c2nc(Cl)c(N)nc2N)cc1` [N-(3,5-diamino-6-chloropyrazine-2-carbonyl)-N'-[4-(4-methoxyphenyl)butyl]-guanidine] showed an IC50 of 15 nM.
With `CCCCCCN=C(N)NC(=O)c1nc(Cl)c(N)nc1N` [N-(3,5-diamino-6-chloropyrazine-2-carbonyl)-N'-hexylguanidine] the IC50 was 87 nM.
`NC(=NCCCCc1ccc(CO)cc1)NC(=O)c1nc(Cl)c(N)nc1N` [N-(3,5-diamino-6-chloropyrazine-2-carbonyl)-N'-[4-(4-hydroxymethylphenyl)-butyl]guanidine] gave an IC50 of 14 nM.
In the case of `COC(=O)c1ccc(CCCCN=C(N)NC(=O)c2nc(Cl)c(N)nc2N)cc1` [4-{4-[N'-(3,5-diamino-6-chloropyrazine-2-carbonyl)guanidino]-butyl}benzoic acid methyl ester], the IC50 is reported as 22 nM.
With `NC(=NCCc1ccc(O)cc1)NC(=O)c1nc(Cl)c(N)nc1N` [N-(3,5-diamino-6-chloropyrazine-2-carbonyl)-N'-[2-(4-hydroxyphenyl)ethyl]-guanidine] the IC50 was 62 nM.
For `NC(=NCCCCc1cccc(OCCO)c1)NC(=O)c1nc(Cl)c(N)nc1N` [N-(3,5-diamino-6-chloropyrazine-2-carbonyl)-N'-{4-[3-(2-hydroxyethoxy)phenyl]-butyl}guanidine], the IC50 was 17 nM.
With `COc1ccc(CCCCCN=C(N)NC(=O)c2nc(Cl)c(N)nc2N)cc1` [N-(3,5-diamino-6-chloropyrazine-2-carbonyl)-N'-[5-(4-methoxyphenyl)pentyl]-guanidine] the IC50 was 77 nM.
For `NC(=NCCCCc1cccc(OCC(O)CO)c1)NC(=O)c1nc(Cl)c(N)nc1N` (stereo not given) [N-(3,5-diamino-6-chloropyrazine-2-carbony)-N'-{4-[3-(2,3-dihydroxypropoxy)-phenyl]butyl}guanidine], the IC50 was 26 nM.
Work on `NC(=NCCCc1ccc(O)cc1)NC(=O)c1nc(Cl)c(N)nc1N` [N-(3,5-diamino-6-chloropyrazine-2-carbonyl)-N'-[3-(4-hydroxyphenyl)propyl]-guanidine] yielded an IC50 of 88 nM.
Compound `NC(=NCCCCc1ccc(OCCO)cc1)NC(=O)c1nc(Cl)c(N)nc1N` [N-(3,5-diamino-6-chloropyrazine-2-carbonyl)-N'-{4-[4-(2-hydroxyethoxy)phenyl]-butyl}guanidine] has an IC50 of 9 nM.
Compound `CCCCCCCCN=C(N)NC(=O)c1nc(Cl)c(N)nc1N` [N-(3,5-diamino-6-chloropyrazine-2-carbonyl)-N'-octylguanidine] has an IC50 of 108 nM.
Compound `NC(=NCCCCc1ccc(C(=O)O)cc1)NC(=O)c1nc(Cl)c(N)nc1N` [4-{4-[N'-(3,5-diamino-6-chloropyrazine-2-carbonyl)guanidino]-butyl}benzoic acid] has an IC50 of 51 nM.
For `NC(=NCCCOc1ccc(O)cc1)NC(=O)c1nc(Cl)c(N)nc1N` [N-(3,5-diamino-6-chloropyrazine-2-carbonyl)-N'-[3-(4-hydroxyphenoxy)propyl]-guanidine], the IC50 was 32 nM.
For `NC(=NCCCCc1cccc(O)c1)NC(=O)c1nc(Cl)c(N)nc1N` [N-(3,5-diamino-6-chloropyrazine-2-carbonyl)-N'-[4-(5-hydroxyphenyl)butyl]-guanidine], the IC50 was 20 nM.
Compound `NC(=NCCCCc1ccccc1OCCO)NC(=O)c1nc(Cl)c(N)nc1N` [N-(3,5-diamino-6-chloropyrazine-2-carbonyl)-N'-{4-[2-(2-hydroxyethoxy)phenyl]-butyl}guanidine] has an IC50 of 31 nM.
Compound `NC(=NCCCCCc1ccccc1)NC(=O)c1nc(Cl)c(N)nc1N` [N-(3,5-diamino-6-chloropyrazine-2-carbonyl)-N'-(5-phenylpentyl)guanidine] has an IC50 of 68 nM.
With `NC(=NCCCCCCCCc1ccccc1)NC(=O)c1nc(Cl)c(N)nc1N` [N-(3,5-diamino-6-chloropyrazine-2-carbonyl)-N'-(8-phenyloctyl)guanidine] the IC50 was 477 nM.
For `NC(=NCCCCc1ccc(N)cc1)NC(=O)c1nc(Cl)c(N)nc1N` [1-(4-(4-aminophenyl)butyl)-3-(3,5-diamino-2-chloropyrazine-6-carbonyl)guanidine], the IC50 was 21 nM.
Work on `COc1ccc(CCCN=C(N)NC(=O)c2nc(Cl)c(N)nc2N)cc1` [N-(3,5-diamino-6-chloropyrazine-2-carbonyl)-N'-[3-(4-methoxyphenyl)propyl]-guanidine] yielded an IC50 of 124 nM.
`NC(=NCCCCc1ccc(OC2O[C@H](C(=O)O)[C@@H](O)[C@H](O)[C@H]2O)cc1)NC(=O)c1nc(Cl)c(N)nc1N` (stereo not given in full) [6-(4-{4-[N'-(3,5-diamino-6-chloropyrazine-2-carbonyl)-guanidino]butyl}phenoxy)-3,4,5-trihydroxytetrahydropyran-2-carboxylic acid] showed an IC50 of 73 nM.
`COc1ccc(COCCN=C(N)NC(=O)c2nc(Cl)c(N)nc2N)cc1` [N-(3,5-diamino-6-chloropyrazine-2-carbonyl)-N'-[2-(4-methoxybenzyloxy)ethyl]-guanidine] was tested, and the IC50 was 41 nM.
`NC(=NCCO)NC(=O)c1nc(Cl)c(N)nc1N` [N-(3,5-diamino-6-chloropyrazine-2-carbonyl)-N'-(2-hydroxyethyl)guanidine] was tested, and the IC50 was 107 nM.
With `NC(=NCCCCc1ccc(OCCCO)cc1)NC(=O)c1nc(Cl)c(N)nc1N` [N-(3,5-diamino-6-chloropyrazine-2-carbonyl)-N'-{4-[4-(3-hydroxypropoxy)phenyl]-butyl}guanidine] the IC50 was 7 nM.
With `NC(=NCCCCc1ccccc1)NC(=O)c1nc(Cl)c(N)nc1N` [N-(3,5-diamino-6-chloropyrazine-2-carbonyl)-N'-(4-phenylbutyl)guanidine] the IC50 was 29 nM.
For `NC(=NCCCCc1ccccc1OCC(O)CO)NC(=O)c1nc(Cl)c(N)nc1N` (stereo not given) [N-(3,5-diamino-6-chloropyrazine-2-carbony)-N'-{4-[2-(2,3-dihydroxypropoxy)-phenyl]butyl}guanidine], the IC50 was 28 nM.
